Data as given in BigSolDB 2.1.

c1ccc2c(c1)oc1ccccc12
solubility (mole fraction)
Settings | in diisopropyl ether | in ethanol | in ethyl acetate | in n-butanol | in tetrachloromethane | in toluene
283.15 K | 0.0838 | 0.0211 | 0.145 | 0.0281 | 0.134 | 0.158
288.15 K | 0.104 | 0.0271 | 0.168 | 0.0326 | 0.161 | 0.185
293.15 K | 0.13 | 0.0322 | 0.199 | 0.0421 | 0.191 | 0.223
298.15 K | 0.155 | 0.0414 | 0.232 | 0.0531 | 0.216 | 0.266
303.15 K | 0.183 | 0.0489 | 0.269 | 0.0671 | 0.264 | 0.301
308.15 K | 0.237 | 0.0707 | 0.328 | 0.0877 | 0.307 | 0.344
313.15 K | 0.284 | 0.102 | 0.387 | 0.107 | 0.354 | 0.399
318.15 K | 0.341 | 0.134 | 0.441 | 0.166 | 0.412 | 0.455
323.15 K | 0.412 | 0.197 | 0.502 | 0.23 | 0.491 | 0.514
328.15 K | 0.508 | 0.283 | 0.565 | 0.364 | 0.548 | 0.582
333.15 K | 0.58 | 0.334 | 0.625 | 0.514 | 0.635 | 0.624
